Experimental data taken from PubChem BioAssay (NCI).
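Cultured in 96-well plates, cells were exposed to test compound for 48 hours across five concentrations. The concentration for full growth arrest is given as TGI.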

Columns and labels:
Test in all cases: NCI tumour cell line growth inhibition, 48 h
[1] = test system: NCI-H23 lung
[2] = test system: T-47D breast
[3] = test system: HS 578T breast
[4] = test system: SW-620 colon
[5] = test system: RPMI-8226 leukemia
[6] = test system: OVCAR-3 ovarian
[7] = test system: BT-549 breast
[8] = test system: 786-0 renal
[9] = test system: SK-MEL-5 melanoma
[10] = test system: UO-31 renal
[11] = test system: ACHN renal
[12] = test system: MALME-3M melanoma
[13] = test system: OVCAR-8 ovarian
[14] = test system: UACC-257 melanoma
[15] = test system: SR leukemia
[16] = test system: MDA-MB-231 breast
[17] = test system: CCRF-CEM leukemia
[18] = test system: HCT-116 colon
[19] = test system: K-562 leukemia
[20] = test system: MDA-MB-435
[21] = test system: U251 CNS
[22] = test system: MDA-N
[23] = test system: OVCAR-5 ovarian
[24] = test system: NCI-H460 lung
[25] = test system: SK-MEL-2 melanoma
[26] = test system: SF-268 CNS
[27] = test system: EKVX NSCLC
[28] = test system: RXF 393 renal
[29] = test system: SNB-19 CNS
[30] = test system: MCF7 breast
[31] = test system: SF-295 CNS
[32] = test system: HCT-15 colon
[33] = test system: SK-OV-3 ovarian
[34] = test system: NCI-H226 lung
[35] = test system: UACC-62 melanoma
[36] = test system: SN12C renal
[37] = test system: CAKI-1 renal
[38] = test system: HCC-2998 colon
[39] = test system: NCI/ADR-RES ovarian
[40] = test system: HOP-62 NSCLC
[41] = test system: IGROV1 ovarian
[42] = test system: OVCAR-4 ovarian
[43] = test system: M14 melanoma
[44] = test system: SNB-75 CNS
[45] = test system: DU-145 prostate
[46] = test system: COLO 205 colon
[47] = test system: MOLT-4 leukemia
[48] = test system: HT29 colon
[49] = test system: A498 renal
[50] = test system: A549 NSCLC
[51] = test system: KM12 colon
[52] = test system: PC-3 prostate

Measured: TGI

Cc1cc2c(c(C(=O)NCCC(=O)N[C@@H](C)C(=O)OCc3ccccc3)c1)Oc1c(cc(C)cc1C(=O)NCCC(=O)N[C@@H](C)C(=O)OCc1ccccc1)S2
> 100 µM: all assays above
